From paper PMC9572621, “Fe(III) and Cu(II) Complexes of Chlorogenic Acid: Spectroscopic, Thermal, Anti-/Pro-Oxidant, and Cytotoxic Studies” (Materials, 2022)
Converted amounts (≈) assume the structure as drawn.

Tests used:
[1] = test system: Stenotrophomonas maltophilia; parameters: method as in doi:10.15199/62.2017.11.9, PMID 25209896; conditions: cited from earlier work
MTS cell viability assay = type: cell-based; conditions: human, HaCaT keratinocyte cells, 1000 nM
Candida albicans = test system: Candida albicans; parameters: method as in doi:10.15199/62.2017.11.9, PMID 25209896; conditions: cited from earlier work
Staphylococcus aureus = test system: Staphylococcus aureus; parameters: method as in doi:10.15199/62.2017.11.9, PMID 26528244, PMID 24228999; conditions: cited from earlier work
[2] = cited from earlier work
[3] = parameters: method as in PMID 15246878; conditions: read-out: IC50, inhibition of the superoxide-driven reduction of NBT by 50%; flavonoid:metal ion ratio 1:1 for complexes; cited from earlier work
[4] = radical assay not named at the place (ABTS•+/DPPH• scavenging discussed); read-out: EC50 (antioxidant); cited from earlier work
[5] = parameters: method as in PMID 29401704; conditions: compound 5 μM; cited from earlier work

Which results are given for O=C(/C=C/c1ccc(O)c(O)c1)O[C@@H]1C[C@](O)(C(=O)O)C[C@@H](O)[C@H]1O [5-CQA, 5-caffeoylquinic acid]?
activity against Stenotrophomonas maltophilia [1]: shows activity; viability at 24 h, 1 µM (MTS cell viability assay): 101 ± 4.5%; MIC (Candida albicans): 80 µg/mL (≈ 226 µM); MIC (Staphylococcus aureus): 500 µg/mL (≈ 1410 µM); pKa1 (COOH) [2]: 3.35; pKa2 [2]: 8.30; pKa3 (OH in the meta position) [2]: 12.06

For C[C@@H]1O[C@@H](OC[C@H]2O[C@@H](Oc3c(-c4ccc(O)c(O)c4)oc4cc(O)cc(O)c4c3=O)[C@H](O)[C@@H](O)[C@@H]2O)[C@H](O)[C@H](O)[C@H]1O [rutin], which IC50 [3] is on record?
Its IC50 is 9 µM.

Which EC50 [4] does the source give for O=C1O[C@H]([C@@H](O)CO)C(O)=C1O [L-ascorbic acid] here?
Its EC50 is 10.3 ± 0.98 µM.

For O=C(C=Cc1ccc(O)c(O)c1)OC1CC(O)(C(=O)[O-])CC(O)C1O.[Li+] (stereo not shown) [CQA/Li], which FRAP activity [5] is on record?
Its FRAP activity is 106.92 µM Fe^2+.
